Here are results for 41 compounds from PubChem BioAssay AID1996.

The term kinetic solubility denotes the concentration staying in solution when a stock, usually in DMSO, is diluted into the medium.

Converted amounts (≈) assume the structure as drawn.

For this data set the following is noted: buffer; pH 7.4; 200.0 µM.
`O=C(CSC(=O)c1ccccc1)Nc1ccccc1F` registered a solubility (kinetic) of 9.8 µg/mL (≈ 33.9 µM). The figure for `COc1ccccc1NC(=O)CCCCC(=O)Nc1ccccc1OC` is 41.8 µg/mL (≈ 117 µM). The same measure for `CSCC[C@H](NC(=O)C1CCN(S(=O)(=O)c2ccc(C)cc2C)CC1)c1nc2ccccc2[nH]1`: 3.3 µg/mL (≈ 6.59 µM).

Consider `O=C(c1ccccc1)c1nc2c(n1O)CCCCC2`, for which the solubility (kinetic) was > 38.4 µg/mL.

`O=[N+]([O-])c1ccc2c(c1)[nH]c(=S)n2-c1ccccc1` came in with a solubility (kinetic) of 2 µg/mL (≈ 7.37 µM).

`COc1ccc(C(=O)N(Cc2ccccc2)c2cccc(C)c2)cc1` gave a kinetic solubility of 15.8 µg/mL (≈ 47.7 µM). The same measure for `CC(=O)c1cccc(NC(=S)Nc2ccc(F)cc2)c1`: 30.3 µg/mL (≈ 105 µM); for `CC1CN(C(=O)COC(=O)Cc2c(Cl)cccc2Cl)CC(C)O1` (stereo unspecified): > 54 µg/mL; for `CCOC(=O)c1ccc2c(c1)N(C)C(=O)c1ccccc1S2`: 7.7 µg/mL (≈ 24.6 µM). The same measure for `Cc1ccccc1SCC(=O)NCC(c1ccc(F)cc1)N1CCOCC1` (stereo unspecified): > 58.3 µg/mL. `CCCNC(=S)N1CCC(C(=O)c2ccc(Cl)cc2)CC1`: the solubility (kinetic) came out at 2.2 µg/mL (≈ 6.77 µM). With `O=C(CCNC(=O)c1ccccc1)NCCc1ccc(Cl)cc1`, the kinetic solubility was 6.9 µg/mL (≈ 20.9 µM). The figure for `O=C(Nc1ccc2c(c1)OCCO2)c1cccnc1Oc1ccccc1` is 4 µg/mL (≈ 11.5 µM). The same measure for `Cc1ccc(NC2=C(Cl)C(=O)OC2OC(C)C)cc1` (stereo unspecified): 34.8 µg/mL (≈ 124 µM); for `Cc1ccc(NC(=O)C2CCCN(c3nccc(C)n3)C2)c(C)c1` (stereo unspecified): 2.2 µg/mL (≈ 6.78 µM). The figure for `O=C(O)c1ccc(NC(=O)c2cc3ccccc3o2)cc1` is > 42.2 µg/mL. Take `O=Cc1ccc(OCC(=O)N2CCOCC2)cc1`: the solubility (kinetic) is > 37.4 µg/mL. The same measure for `COC(=O)c1ccsc1-n1cc(C#N)c(=O)n(C)c1=O`: > 43.7 µg/mL; for `O=C(NC1CCCN(CCc2ccccc2)C1)c1c[nH]c2ccccc12` (stereo unspecified): 49.3 µg/mL (≈ 142 µM); for `O=C1NC(=Nc2ccccc2)S/C1=C\c1cccs1`: 1 µg/mL (≈ 3.49 µM).

In the case of `COc1cc(OC)c(C(=O)OCC(=O)Nc2ccc(S(=O)(=O)N3CCOCC3)cc2)cc1OC`, the kinetic solubility is 9.6 µg/mL (≈ 19.4 µM). The figure for `Cc1ccc(C(=O)NC(=S)NCc2ccccc2)cc1` is < 0.3 µg/mL; for `COc1ccc(C(=O)Nc2cccc(S(=O)(=O)NCc3ccco3)c2)cc1` it is 8.7 µg/mL (≈ 22.5 µM); for `O=C(O)c1ccccc1-c1ccccc1C(=O)Nc1ccc2c(c1)CCC2` it is > 53.6 µg/mL.

Turning to `COc1cccc(/C=C/C(=O)N2CC(C)OC(C)C2)c1OC` (stereo unspecified), the solubility (kinetic) was > 45.8 µg/mL. The same measure for `O=C(O)CCNC(=S)Nc1cccc(F)c1`: > 36.3 µg/mL. The same measure for `CCCc1cc(C(=O)Nc2cc(OC)ccc2OC)cs1`: 8.6 µg/mL (≈ 28.2 µM); for `COc1ccccc1N/C(N)=N/c1nc(C)cc(C)n1`: 38.2 µg/mL (≈ 141 µM). Turning to `O=C(O)C1CCc2sc3[nH]c(=S)n(-c4ccccc4)c(=O)c3c21` (stereo unspecified), the kinetic solubility is > 51.7 µg/mL. The same measure for `Cc1ccc(Cn2c(N)nc3ccccc32)cc1`: 23.8 µg/mL (≈ 100 µM). Turning to `CC(CCc1ccccc1)NC(=O)c1ccccc1C(=O)O` (stereo unspecified), the solubility (kinetic) is > 44.6 µg/mL. For the compound `O=C(NC(=S)Nc1ccc(Cl)cc1Cl)C1CC1`, the kinetic solubility came to 0.8 µg/mL (≈ 2.77 µM). The same measure for `COc1ccccc1C(=O)NCCSCc1ccccc1Cl`: 15.1 µg/mL (≈ 45 µM); for `CC(=O)N1CCc2ccc(S(=O)(=O)N3CCc4ccccc43)cc21`: 0.5 µg/mL (≈ 1.46 µM); for `NC(=O)CN1C(=O)NC2(CCCc3ccccc32)C1=O` (stereo unspecified): > 41 µg/mL. The figure for `C=CCn1c(SCC#N)nc2sc(CC)cc2c1=O` is 7 µg/mL (≈ 24 µM); for `O=Cc1c(NC2CCCCC2)c2ccccc2[nH]c1=O` it is 35.2 µg/mL (≈ 130 µM). Turning to `CC(C)(C)c1csc(CS(=O)(=O)c2ccccn2)n1`, the solubility (kinetic) was > 44.5 µg/mL. In turn, `O=[N+]([O-])c1ccc(OCc2cnc(Cl)s2)cc1` registered a solubility (kinetic) of 5.6 µg/mL (≈ 20.7 µM). The same measure for `COc1ccccc1OCc1nc(C#N)c(N2CCCC2)o1`: 39.1 µg/mL (≈ 131 µM); for `O=C(OCC(=O)N1CCc2ccccc21)[C@@H]1CC(O)CN1S(=O)(=O)c1ccc(Cl)cc1` (stereo partly specified): 50.4 µg/mL (≈ 108 µM).
